Test results reported in US11125659B2, “Preservative solution for heme protein, and method for stabilizing heme protein” (EIKEN KAGAKU KABUSHIKI KAISHA, priority 2015, dated 2021).

Test system: hemoglobin
Assay: Residual percentage of hemoglobin in buffer solution with additive after storage at 37° C., hemoglobin concentration by latex agglutination immunoassay (OC sensor DIANA)
Design: species or system human
Conditions: for Residual percentage After 6 hours of storage / Residual percentage After 24 hours of storage: 37° C.; for effect of stabilizing hemoglobin (result in words): storage at 37° C., 6 and 24 hours, versus control sample; for residual percentages of hemoglobin after 6 hours of storage and after 24 hours of storage (result in words): stored at a high temperature of 37° C.
Description: A solution (pH7.0) containing 0.3 w/v % bovine serum albumin, NaOH, 0.05 mol/L phosphate buffer solution as a buffer solution, and pure water as the remainder was prepared. 1,2-EDS as an additive was added, to the solution in such an amount as to give each concentration (0.01 to 0.2 mol/L) listed in Table 1, thereby preparing a solution at each concentration. Hemolytic hemoglobin was added to 10 mL of the prepared solutions in such an amount as to give a 600 ng/mL sample.
Immediately after addition of hemoglobin, the hemoglobin concentration (concentration immediately after addition) of each sample was measured. Subsequently, each sample was stored at 37° C. With the time of adding hemoglobin designated as 0 hour of storage, hemoglobin concentration of each sample was measured after 6 hours of storage and after 24 hours of storage (concentration after 6 hours of storage and concentration after 24 hours of storage).
Hemoglobin concentration was measured using an OC sensor DIANA analyzer (Eiken Chemical Co., Ltd) and a dedicated reagent (OC-Hemodia Auto III: Eiken Chemical Co., Ltd) based on the measurement principle, a latex agglutination reaction; that is, a type of immunoassay method. Specifically, 35 μL of the sample was collected and used as a test solution, and then 60 μL of latex (latex solution sensitized with 20 vol % anti-human hemoglobin rabbit polyclonal antibody) and 300 μL of diluent (11.92 mg/mL HEPES) were added to the test solution, followed by measurement of absorbance at a wavelength of 660 nm. Based on a previously produced calibration curve, hemoglobin concentration in the test solution was determined from the thus obtained measurement value. Measurement was performed in triplicate for each sample, the mean value of the measurement results was employed as the hemoglobin concentration of each sample.
From the thus measured hemoglobin concentrations, the residual percentages of hemoglobin were found based on the following formula.
Residual percentage [%] of hemoglobin after 6 hours of storage or after 24 hours of storage=100×hemoglobin concentration [ng/mL] after 6 hours of storage or after 24 hours of storage/concentration [ng/mL] immediately after addition in control sample.
Specifically, the residual percentage of hemoglobin of each sample is a relative value with the hemoglobin concentration (immediately after addition) in a control sample designated as 100%. The control sample in this example was a phosphate buffer solution (containing no 1,2-EDS) containing bovine serum albumin and NaOH, and the concentration immediately after addition in the control sample was 583 ng/mL.
Samples were prepared in a manner similar to Example 1 except that 0.05 mol/L N-(2-hydroxyethyl)piperazine-N′-ethanesulfonic acid (hereinafter, referred to as HEPES) was used instead of a phosphate buffer solution and that 1,2-EDS was added in such an amount as to give each concentration (0.005 to 0.2 mol/L) listed in Table 2, and then hemoglobin concentrations were measured. In addition, the residual percentage of each sample was represented by a relative value with the concentration immediately after addition (576 ng/mL) in a control sample (HEPES buffer solution (containing no 1,2-EDS) containing bovine serum albumin and NaOH) designated as 100%.
Samples were prepared in a manner similar to Example 1 except that 0.05 mol/L HEPES, 0.05 mol/L piperazine-N,N′-bis(2-ethanesulfonic acid) (hereinafter, referred to as PIPES) or 0.05 mol/L 2-morpholinoethanesulfonic acid (hereinafter, referred to as MES) was used instead of a phosphate buffer solution, and that 1,2-EDS was added in such an amount as to give each concentration listed in Table 3, and then hemoglobin concentrations were measured. […]

[1] = phosphate buffer, additive 50 mM, relative to phosphate control (548 ng/mL)
[2] = HEPES buffer, additive 150 mM, relative to phosphate control (548 ng/mL)
[3] = phosphate buffer, additive 150 mM, relative to phosphate control (548 ng/mL)
[4] = phosphate buffer pH7.0, additive 10 mM, relative to control immediately after addition (583 ng/mL)
[5] = HEPES buffer, additive 5 mM, relative to HEPES control (576 ng/mL)
[6] = HEPES buffer, additive 10 mM, relative to HEPES control (576 ng/mL)
[7] = HEPES buffer, additive 20 mM, relative to HEPES control (576 ng/mL)
[8] = HEPES buffer, additive 20 mM, relative to phosphate control (583 ng/mL)
[9] = HEPES buffer, additive 40 mM, relative to HEPES control (576 ng/mL)
[10] = HEPES buffer, additive 60 mM, relative to HEPES control (576 ng/mL)
[11] = HEPES buffer, additive 100 mM, relative to HEPES control (576 ng/mL)
[12] = HEPES buffer, additive 150 mM, relative to HEPES control (576 ng/mL)
[13] = HEPES buffer, additive 200 mM, relative to HEPES control (576 ng/mL)
[14] = MES buffer, additive 20 mM, relative to phosphate control (583 ng/mL)
[15] = PIPES buffer, additive 20 mM, relative to phosphate control (583 ng/mL)
[16] = phosphate buffer, additive 20 mM, relative to control (583 ng/mL)
[17] = phosphate buffer, additive 40 mM, relative to control (583 ng/mL)
[18] = phosphate buffer, additive 60 mM, relative to control (583 ng/mL)
[19] = phosphate buffer, additive 100 mM, relative to control (583 ng/mL)
[20] = phosphate buffer, additive 150 mM, relative to control (583 ng/mL)
[21] = phosphate buffer, additive 200 mM, relative to control (583 ng/mL)

O=S(=O)(O)c1ccc2cc(S(=O)(=O)O)ccc2c1 [2,6-NDS, 2,6-naphthalenedisulfonic acid]
Residual percentage After 6 hours of storage [1]: 55.7%
Residual percentage After 24 hours of storage [1]: 11.1%
effect of stabilizing hemoglobin (result in words): effect of stabilizing hemoglobin
residual percentages of hemoglobin after 6 hours of storage and after 24 hours of storage (result in words): high levels

O=S(=O)(O)CCCCS(=O)(=O)O [1,4-BDS, 1,4-butanedisulfonic acid]
Residual percentage After 6 hours of storage [2]: 74.7%
Residual percentage After 24 hours of storage [2]: 28.4%
Residual percentage After 6 hours of storage [1]: 68.3%
Residual percentage After 24 hours of storage [1]: 14.5%
Residual percentage After 6 hours of storage [3]: 69.9%
Residual percentage After 24 hours of storage [3]: 18.4%
effect of stabilizing hemoglobin (result in words): effect of stabilizing hemoglobin
residual percentages of hemoglobin after 6 hours of storage and after 24 hours of storage (result in words): high levels

O=S(=O)(O)c1cccc2cccc(Nc3ccccc3)c12 [ANS, 8-anilino-1-naphthalenesulfonate, reference compound]
Residual percentage After 6 hours of storage [4]: 2.6%
Residual percentage After 24 hours of storage [4]: 2.5%

O=S(=O)(O)CCN1CCN(CCS(=O)(=O)O)CC1 [PIPES, piperazine-N,N′-bis(2-ethanesulfonic acid)]
Residual percentage After 6 hours of storage [1]: 58.4%
Residual percentage After 24 hours of storage [1]: 10.4%
effect of stabilizing hemoglobin (result in words): effect of stabilizing hemoglobin

O=S(=O)([O-])CCS.[Na+] [MESS, sodium 2-mercaptoethanesulfonate, reference compound]
Residual percentage After 6 hours of storage [4]: 33.4%
Residual percentage After 24 hours of storage [4]: 3.3%

O=S(=O)(O)CCS(=O)(=O)O [1,2-EDS, 1,2-ethanedisulfonic acid]
Residual percentage After 6 hours of storage [5]: 64.3%
Residual percentage After 24 hours of storage [5]: 14.0%
Residual percentage After 6 hours of storage [6]: 65.2%
Residual percentage After 24 hours of storage [6]: 16.6%
Residual percentage After 6 hours of storage [7]: 67.1%
Residual percentage After 24 hours of storage [7]: 18.1%
Residual percentage After 6 hours of storage [8]: 67.6%
Residual percentage After 24 hours of storage [8]: 20.2%
Residual percentage After 6 hours of storage [9]: 68.5%
Residual percentage After 24 hours of storage [9]: 19.7%
Residual percentage After 6 hours of storage [10]: 71.3%
Residual percentage After 24 hours of storage [10]: 20.8%
Residual percentage After 6 hours of storage [11]: 72.4%
Residual percentage After 24 hours of storage [11]: 21.6%
Residual percentage After 6 hours of storage [12]: 72.8%
Residual percentage After 24 hours of storage [12]: 20.4%
Residual percentage After 6 hours of storage [13]: 73.1%
Residual percentage After 24 hours of storage [13]: 21.8%
Residual percentage After 6 hours of storage [14]: 65.9%
Residual percentage After 24 hours of storage [14]: 18.7%
Residual percentage After 6 hours of storage [15]: 63.6%
Residual percentage After 24 hours of storage [15]: 14.3%
Residual percentage After 6 hours of storage [4]: 52.5%
Residual percentage After 24 hours of storage [4]: 7.5%
Residual percentage After 6 hours of storage [16]: 56.3%
Residual percentage After 24 hours of storage [16]: 9.0%
Residual percentage After 6 hours of storage [17]: 61.9%
Residual percentage After 24 hours of storage [17]: 12.8%
Residual percentage After 6 hours of storage [18]: 59.7%
Residual percentage After 24 hours of storage [18]: 12.3%
Residual percentage After 6 hours of storage [19]: 65.4%
Residual percentage After 24 hours of storage [19]: 16.6%
Residual percentage After 6 hours of storage [20]: 71.5%
Residual percentage After 24 hours of storage [20]: 24.3%
Residual percentage After 6 hours of storage [21]: 46.2%
Residual percentage After 24 hours of storage [21]: 7.9%
effect of stabilizing hemoglobin (result in words): effect of stabilizing hemoglobin
residual percentages of hemoglobin after 6 hours of storage and after 24 hours of storage (result in words): high levels
